From PubChem BioAssay AID192 (DTP/NCI, 2004)
Several values for one entry are separate records, joined by “and”; a condition that tells them apart may be missing. Identical values can stand only once. Inconclusive results and toxic doses are left out.

Test system: BDF1 mice, B16 melanoma ip, median survival T/C
Test: NCI In Vivo Anticancer Drug Screen. Data for tumor model B16 Melanoma (intraperitoneal) in B6D2F1 (BDF1) mice
Settings: endpoint: median survival time, higher = longer survival
In short: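 Tumor-bearing mice received test compound or vehicle. Survival or tumor size was then measured in both groups. The treated-group figure was divided by the control-group figure.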

[1] = dose: 25.0 mg/kg/injection, schedule: Q01DX009 (ip), vehicle: saline with Tween-80
[2] = dose: 50.0 mg/kg/injection, schedule: Q01DX009 (ip), vehicle: saline with Tween-80

## O=C(NCCCCCCCCCCNC(=O)N1CC1)N1CC1
dose: 0.75 mg/kg/injection, schedule: Q01DX009 (ip), vehicle: saline
  T/C: 115 % of control
dose: 3.0 mg/kg/injection, schedule: Q01DX009 (ip), vehicle: saline
  T/C: 154 % of control

## CCCCCCCCCCCC[N+](C)(C)C (tested in a mixture with another compound)
dose: 3.5 mg/kg/injection, schedule: Q01DX009 (ip), vehicle: saline
  T/C: 98 % of control
dose: 7.0 mg/kg/injection, schedule: Q01DX009 (ip), vehicle: saline
  T/C: 86 % of control
dose: 14.0 mg/kg/injection, schedule: Q01DX009 (ip), vehicle: saline
  T/C: 90 % of control

## FC(F)(F)c1ccc2c(c1)N(CCCN1CC[N+]3(CCOCC3)CC1)c1ccccc1S2
dose: 0.5 mg/kg/injection, schedule: Q01DX009 (ip), vehicle: saline
  T/C: 105 % of control
dose: 1.0 mg/kg/injection, schedule: Q01DX009 (ip), vehicle: saline
  T/C: 94 % of control and 102 % of control
dose: 2.0 mg/kg/injection, schedule: Q01DX009 (ip), vehicle: saline
  T/C: 100 % of control and 105 % of control
dose: 4.0 mg/kg/injection, schedule: Q01DX009 (ip), vehicle: saline
  T/C: 94 % of control

## Cc1ccc(N=NN(C)C)cc1
dose: 12.5 mg/kg/injection, schedule: Q01DX009 (ip), vehicle: saline with Tween-80
  T/C: 113 % of control
[1]
  T/C: 115 % of control
[2]
  T/C: 106 % of control

## CCNc1nc(NCC)nc(SC)n1
[1]
  T/C: 97 % of control
[2]
  T/C: 87 % of control
dose: 100.0 mg/kg/injection, schedule: Q01DX009 (ip), vehicle: saline with Tween-80
  T/C: 105 % of control

## Cc1nc2ccccc2nc1CI
dose: 0.75 mg/kg/injection, schedule: Q01DX009 (ip), vehicle: saline with Tween-80
  T/C: 106 % of control
dose: 1.5 mg/kg/injection, schedule: Q01DX009 (ip), vehicle: saline with Tween-80
  T/C: 93 % of control
dose: 3.0 mg/kg/injection, schedule: Q01DX009 (ip), vehicle: saline with Tween-80
  T/C: 106 % of control
dose: 6.0 mg/kg/injection, schedule: Q01DX009 (ip), vehicle: saline with Tween-80
  T/C: 93 % of control
dose: 6.25 mg/kg/injection, schedule: Q01DX009 (ip), vehicle: saline with Tween-80
  T/C: 91 % of control

## COc1cc([C@@H]2c3cc4c(cc3[C@@H](OC3OC5COC(C)OC5C(O)C3O)[C@H]3COC(=O)[C@H]23)OCO4)cc(OC)c1O (some centres not stated)
dose: 1.73 mg/kg/injection, schedule: Q01DX009 (ip), vehicle: clinical formulation
  T/C: 206 % of control
dose: 2.0 mg/kg/injection, schedule: Q01DX009 (ip), vehicle: Klucel (hydroxypropylcellulose) (HPC)
  T/C: 150 % of control
dose: 2.88 mg/kg/injection, schedule: Q01DX009 (ip), vehicle: clinical formulation
  T/C: 240 % of control
dose: 4.0 mg/kg/injection, schedule: Q01DX009 (ip), vehicle: Klucel (hydroxypropylcellulose) (HPC)
  T/C: 111 % of control
dose: 4.8 mg/kg/injection, schedule: Q01DX009 (ip), vehicle: clinical formulation
  T/C: 240 % of control
dose: 5.0 mg/kg/injection, schedule: Q01DX009 (ip), vehicle: saline
  T/C: 252 % of control
dose: 5.0 mg/kg/injection, schedule: Q04DX003 (ip), vehicle: suspension in saline
  T/C: 202 % of control
dose: 8.0 mg/kg/injection, schedule: Q01DX009 (ip), vehicle: Klucel (hydroxypropylcellulose) (HPC)
  T/C: 276 % of control
dose: 8.0 mg/kg/injection, schedule: Q01DX009 (ip), vehicle: clinical formulation
  T/C: 259 % of control
dose: 8.0 mg/kg/injection, schedule: Q04DX003 (ip), vehicle: suspension in saline
  T/C: 180 % of control
dose: 10.0 mg/kg/injection, schedule: Q01DX009 (ip), vehicle: saline
  T/C: 285 % of control
dose: 10.0 mg/kg/injection, schedule: Q04DX003 (ip), vehicle: suspension in saline
  T/C: 208 % of control
dose: 13.3 mg/kg/injection, schedule: Q01DX009 (ip), vehicle: clinical formulation
  T/C: 53 % of control
dose: 16.0 mg/kg/injection, schedule: Q04DX003 (ip), vehicle: suspension in saline
  T/C: 207 % of control
dose: 20.0 mg/kg/injection, schedule: Q04DX003 (ip), vehicle: suspension in saline
  T/C: 236 % of control
dose: 32.0 mg/kg/injection, schedule: Q04DX003 (ip), vehicle: suspension in saline
  T/C: 85 % of control
dose: 40.0 mg/kg/injection, schedule: Q04DX003 (ip), vehicle: suspension in saline
  T/C: 241 % of control
dose: 64.0 mg/kg/injection, schedule: Q04DX003 (ip), vehicle: suspension in saline
  T/C: 63 % of control

## Oc1ccc(Nc2ccnc3cc(Cl)ccc23)cc1CN(CCCl)CCCl
dose: 0.31 mg/kg/injection, schedule: Q01DX009 (ip), vehicle: saline
  T/C: 97 % of control
dose: 0.63 mg/kg/injection, schedule: Q01DX009 (ip), vehicle: saline
  T/C: 105 % of control
dose: 1.25 mg/kg/injection, schedule: Q01DX009 (ip), vehicle: saline
  T/C: 107 % of control and 113 % of control
dose: 2.5 mg/kg/injection, schedule: Q01DX009 (ip), vehicle: saline
  T/C: 115 % of control
